According to article PMC4338649 (International Journal of Endocrinology and Metabolism, 2014):

Tested on: infants with central diabetes insipidus
Experiment: Pharmacodynamics
Assay type: in vivo
Conditions: Case 2, IV administration of dDAVP; confirmed diagnosis of CDI

With desmopressin [dDAVP] the “urine output and osmolality after IV administration” value was “Normalization of urine output and osmolality”.
